# Test system: HIV-1 (H9IIIB strain)
# Assay: Cell-based HIV infection assay using a reporter (Cell-Based), MT4-GFP cells
# Conditions: Human immunodeficiency virus 1, MT4-GFP cells infected with HIV-1 H9IIIB; 50% normal human serum; mean of at least two independent experiments; read-out: Cell-based IP
# How it was run: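 IC50 from 4-parameter dose-response of % viral growth inhibition, using the 48 h/24 h infected-cell ratio scaled between DMSO and a protease/integrase/NNRTI triple-drug control. Assay used MT4 cells with HIV-LTR-GFP reporter, pre-infected 24 h with HIV-1 H9IIIB, in 50% normal human serum.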
row,SMILES,IC50 [µM]
1,"COc1ccccc1S(=O)(=O)N1[C@@H](CCc2c(F)cccc2NC(=O)[C@@H](N)[C@@H](c2ccc(F)cc2)c2cc(F)cc(F)c2)CNC[C@H]1C [Example 239, (βS)-β-(3,5-difluorophenyl)-4-fluoro-N-[3-fluoro-2-(2-{(2S,6R)-1-[(2-methoxyphenyl)sulfonyl]-6-methylpiperazin-2-yl}ethyl)phenyl]-L-phenylalaninamide]",0.13
2,"COC(=O)N[C@H](C(=O)Nc1cccc(F)c1CC[C@H]1CNC[C@H](C)N1S(=O)(=O)c1ccccc1OC)[C@@H](c1ccc(F)cc1)c1cc(F)cc(F)c1 [Example 240, (βS)-β-(3,5-difluorophenyl)-4-fluoro-N-[3-fluoro-2-(2-{(2S,6S)-1-[(2-methoxyphenyl)sulfonyl]-6-methylpiperazin-2-yl}ethyl)phenyl]-Nα-(methoxycarbonyl)-L-phenylalaninamide]",0.071
3,"COCC1CNC[C@H](CCc2c(F)cccc2NC(=O)[C@@H](N)[C@@H](c2ccc(F)cc2)c2cc(F)cc(F)c2)N1S(=O)(=O)C1CC1 (stereo partly drawn) [Example 241, (βS)-N-(2-{2-[(2S)-1-(cyclopropylsulfonyl)-6-(methoxymethyl)piperazin-2-yl]ethyl}-3-fluorophenyl)-β-(3,5-difluorophenyl)-4-fluoro-L-phenylalaninamide]",0.039
4,"CC(C)OCC1CNC[C@H](CCc2c(F)cccc2NC(=O)[C@@H](N)[C@H](c2cccc(F)c2)c2cccc(Cl)c2)N1S(C)(=O)=O (stereo partly drawn) [Example 242, (βR)-β-(3-chlorophenyl)-3-fluoro-N-(3-fluoro-2-{2-[(2S)-6-[(1-methylethoxy)methyl]-1-(methylsulfonyl)piperazin-2-yl]ethyl}phenyl)-L-phenylalaninamide]",0.22
5,"C[C@H]1CNC[C@H](CCc2c(F)cncc2NC(=O)[C@@H](N)[C@@H](c2ccc(F)cc2)c2cc(F)cc(F)c2)N1S(=O)(=O)c1ccc(OC(F)(F)F)cc1 [Example 243, (βS)-β-(3,5-difluorophenyl)-4-fluoro-N-(5-fluoro-4-{2-[(2S,6S)-6-methyl-1-{[4-(trifluoromethoxy)phenyl]sulfonyl}piperazin-2-yl]ethyl}pyridin-3-yl)-L-phenylalaninamide]",0.017
6,"COc1ccc(S(=O)(=O)N2[C@@H](CCc3c(F)cncc3NC(=O)[C@@H](N)[C@@H](c3ccc(F)cc3)c3cc(F)cc(F)c3)CNC[C@@H]2C)cc1 [Example 244, (βS)-β-(3,5-difluorophenyl)-4-fluoro-N-[5-fluoro-4-(2-{(2S,6S)-1-[(4-methoxyphenyl)sulfonyl]-6-methylpiperazin-2-yl}ethyl)pyridin-3-yl]-L-phenylalaninamide]",0.0059
7,"C[C@H]1CNC[C@H](CCc2c(F)cncc2NC(=O)[C@@H](N)[C@@H](c2ccc(F)cc2)c2cc(F)cc(F)c2)N1S(=O)(=O)c1ccccc1Cl [Example 245, (βS)-N-[4-(2-{(2S,6S)-1-[(2-chlorophenyl)sulfonyl]-6-methylpiperazin-2-yl}ethyl)-5-fluoropyridin-3-yl]-β-(3,5-difluorophenyl)-4-fluoro-L-phenylalaninamide]",0.051
8,"COC(=O)N[C@H](C(=O)Nc1cncc(F)c1CC[C@H]1CNC[C@H](C)N1S(=O)(=O)c1ccc(OC)cc1)[C@@H](c1ccc(F)cc1)c1cc(F)cc(F)c1 [Example 246, (βS)-β-(3,5-difluorophenyl)-4-fluoro-N-[5-fluoro-4-(2-{(2S,6S)-1-[(4-methoxyphenyl)sulfonyl]-6-methylpiperazin-2-yl}ethyl)pyridin-3-yl]-Nα-(methoxycarbonyl)-L-phenylalaninamide]",0.0059
9,"COC(=O)N[C@H](C(=O)Nc1cncc(F)c1CC[C@H]1CNC[C@@H](C)N1S(=O)(=O)c1ccc(OC(F)(F)F)cc1)[C@@H](c1ccc(F)cc1)c1cc(F)cc(F)c1 [Example 247, (βS)-β-(3,5-difluorophenyl)-4-fluoro-N-(5-fluoro-4-{2-[(2S,6R)-6-methyl-1-{[4-(trifluoromethoxy)phenyl]sulfonyl}piperazin-2-yl]ethyl}pyridin-3-yl)-Nα-(methoxycarbonyl)-L-phenylalaninamide]",0.077
10,"COC(=O)N[C@H](C(=O)Nc1cccc(F)c1CC[C@H]1CNC[C@@H](C)N1S(=O)(=O)c1ccc(OC(F)(F)F)cc1)[C@@H](c1ccc(F)cc1)c1cc(F)cc(F)c1 [Example 248, (βS)-β-(3,5-difluorophenyl)-4-fluoro-N-(3-fluoro-2-{2-[(2S,6R)-6-methyl-1-{[4-(trifluoromethoxy)phenyl]sulfonyl}piperazin-2-yl]ethyl}phenyl)-Nα-(methoxycarbonyl)-L-phenylalaninamide]",0.045
11,"COc1ccc(S(=O)(=O)N2[C@@H](CCc3c(F)cccc3NC(=O)[C@@H](N)[C@@H](c3cccc(Cl)c3)C(C)C)CNC[C@@H]2C)cc1 [Example 249, (βR)-3-chloro-N-[3-fluoro-2-(2-{(2S,6S)-1-[(4-methoxyphenyl)sulfonyl]-6-methylpiperazin-2-yl}ethyl)phenyl]-β-(1-methylethyl)-L-phenylalaninamide]",0.053
12,"COC(=O)N[C@H](C(=O)Nc1cccc(F)c1CC[C@H]1CNC[C@H](C)N1S(=O)(=O)c1ccc(OC)cc1)[C@@H](c1cccc(Cl)c1)C(C)C [Example 250, (βR)-3-chloro-N-[3-fluoro-2-(2-{(2S,6S)-1-[(4-methoxyphenyl)sulfonyl]-6-methylpiperazin-2-yl}ethyl)phenyl]-Nα-(methoxycarbonyl)-β-(1-methylethyl)-L-phenylalaninamide]",0.034
13,"COc1ccc(S(=O)(=O)N2[C@@H](CCc3c(F)cccc3NC(=O)[C@@H](N)[C@@H](c3ccc(F)cc3)c3cc(F)cc(F)c3)CNC[C@@H]2C)cc1 [Example 251, (βS)-β-(3,5-difluorophenyl)-4-fluoro-N-[3-fluoro-2-(2-{(2S,6S)-1-[(4-methoxyphenyl)sulfonyl]-6-methylpiperazin-2-yl}ethyl)phenyl]-L-phenylalaninamide]",0.0041
14,"COC(=O)N[C@H](C(=O)Nc1cccc(F)c1CC[C@H]1CNC[C@H](C)N1S(=O)(=O)c1ccc(OC)cc1)[C@@H](c1ccc(F)cc1)c1cc(F)cc(F)c1 [Example 252, (βS)-β-(3,5-difluorophenyl)-4-fluoro-N-[3-fluoro-2-(2-{(2S,6S)-1-[(4-methoxyphenyl)sulfonyl]-6-methylpiperazin-2-yl}ethyl)phenyl]-Nα-(methoxycarbonyl)-L-phenylalaninamide]",0.0079
15,"COC(=O)N[C@H](C(=O)Nc1cccc(F)c1CC[C@H]1CNC[C@H](C)N1S(=O)(=O)c1ccccc1)[C@H](c1cncc(F)c1)c1cccc(Cl)c1 [Example 253, (βS)-3-chloro-N-(3-fluoro-2-{2-[(2S,6S)-6-methyl-1-(phenylsulfonyl)piperazin-2-yl]ethyl}phenyl)-β-(5-fluoropyridin-3-yl)-Nα-(methoxycarbonyl)-L-phenylalaninamide]",0.024
16,"CC(C)[C@H](c1ccc(Cl)cc1)[C@H](N)C(=O)Nc1cncc(F)c1CC[C@H]1CNC[C@@H](C)N1S(=O)(=O)c1ccccc1 [Example 254, (βR)-4-chloro-N-(5-fluoro-4-{2-[(2S,6R)-6-methyl-1-(phenylsulfonyl)piperazin-2-yl]ethyl}pyridin-3-yl)-β-(1-methylethyl)-L-phenylalaninamide]",0.016
17,"C[C@@H]1CNC[C@H](CCc2c(F)cccc2NC(=O)[C@@H](N)[C@@H](c2ccc(F)cc2)c2cc(F)cc(F)c2)N1S(=O)(=O)c1ccc(OC(F)(F)F)cc1 [Example 255, (βS)-β-(3,5-difluorophenyl)-4-fluoro-N-(3-fluoro-2-{2-[(2S,6R)-6-methyl-1-{[4-(trifluoromethoxy)phenyl]sulfonyl}piperazin-2-yl]ethyl}phenyl)-L-phenylalaninamide]",0.059
18,"COC(=O)N[C@H](C(=O)Nc1cccc(F)c1CC[C@H]1CNC[C@@H](C)N1S(=O)(=O)C1CC1)[C@@H](c1ccc(F)cc1)c1cc(F)cc(F)c1 [Example 257, (βS)-N-(2-{2-[(2S,6R)-1-(cyclopropylsulfonyl)-6-methylpiperazin-2-yl]ethyl}-3-fluorophenyl)-β-(3,5-difluorophenyl)-4-fluoro-Nα-(methoxycarbonyl)-L-phenylalaninamide]",0.027
19,"C[C@H]1CNC[C@H](CCc2c(F)cccc2NC(=O)[C@@H](N)[C@@H](c2ccc(F)cc2)c2cc(F)cc(F)c2)N1S(C)(=O)=O [Example 258, (βS)-β-(3,5-difluorophenyl)-4-fluoro-N-(3-fluoro-2-{2-[(2S,6S)-6-methyl-1-(methylsulfonyl)piperazin-2-yl]ethyl}phenyl)-L-phenylalaninamide]",0.031

# Same assay, conditions: MT4-GFP cells infected with HIV-1 H9IIIB; 50% normal human serum; mean of at least two independent experiments; read-out: Cell-based IP
row,SMILES,IC50 [µM]
1,"CC(C)OCC1CNC[C@H](CCc2c(F)cccc2NC(=O)[C@@H](N)[C@@H](c2ccc(F)cc2)c2cc(F)cc(F)c2)N1S(=O)(=O)C1CC1 (stereo partly drawn) [Example 256, (βS)-N-[2-(2-{(2S)-1-(cyclopropylsulfonyl)-6-[(1-methylethoxy)methyl]piperazin-2-yl}ethyl)-3-fluorophenyl]-β-(3,5-difluorophenyl)-4-fluoro-L-phenylalaninamide]",0.073
2,"COC(=O)N[C@H](C(=O)Nc1cccc(F)c1CC[C@H]1CNC[C@H](C)N1S(C)(=O)=O)[C@@H](c1ccc(F)cc1)c1cc(F)cc(F)c1 [Example 259, (βS)-β-(3,5-difluorophenyl)-4-fluoro-N-(3-fluoro-2-{2-[(2S,6S)-6-methyl-1-(methylsulfonyl)piperazin-2-yl]ethyl}phenyl)-Nα-(methoxycarbonyl)-L-phenylalaninamide]",0.018
3,"COCC1CNC[C@H](CCc2c(F)cccc2NC(=O)[C@@H](N)[C@@H](c2ccc(Cl)cc2)C2CCOCC2)N1S(C)(=O)=O (stereo partly drawn) [Example 260, (βR)-4-chloro-N-(3-fluoro-2-{2-[(2S)-6-(methoxymethyl)-1-(methylsulfonyl)piperazin-2-yl]ethyl}phenyl)-β-(tetrahydro-2H-pyran-4-yl)-L-phenylalaninamide]",0.14
